Results as given in PubChem BioAssay (NCI).
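Where inhibition never reached the appropriate level, the endpoint shown equals the highest concentration tested. Otherwise, values were interpolated linearly from a five-concentration, 48-hour dose response in 96-well plates. TGI denotes the concentration required for complete inhibition of growth.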

What was measured:
Assay in all cases: NCI anticancer screen, dose series, 48 h
[1] = system: OVCAR-5 ovarian
[2] = system: COLO 205 colon
[3] = system: SF-295 CNS
[4] = system: PC-3 prostate
[5] = system: MOLT-4 leukemia
[6] = system: MALME-3M melanoma
[7] = system: DU-145 prostate
[8] = system: OVCAR-3 ovarian
[9] = system: CCRF-CEM leukemia
[10] = system: SW-620 colon
[11] = system: IGROV1 ovarian
[12] = system: OVCAR-4 ovarian
[13] = system: NCI-H226 lung
[14] = system: LOX IMVI melanoma
[15] = system: T-47D breast
[16] = system: KM12 colon
[17] = system: HL-60(TB) leukemia
[18] = system: NCI-H522 lung
[19] = system: SK-MEL-5 melanoma
[20] = system: HOP-62 NSCLC
[21] = system: OVCAR-8 ovarian
[22] = system: BT-549 breast
[23] = system: SR leukemia
[24] = system: HCT-116 colon
[25] = system: HS 578T breast
[26] = system: M14 melanoma
[27] = system: SK-MEL-28 melanoma
[28] = system: A549 NSCLC
[29] = system: UACC-62 melanoma
[30] = system: NCI/ADR-RES ovarian
[31] = system: TK-10 renal
[32] = system: RXF 393 renal
[33] = system: HOP-92 NSCLC
[34] = system: UO-31 renal
[35] = system: SN12C renal
[36] = system: K-562 leukemia
[37] = system: SF-539 CNS
[38] = system: HCT-15 colon
[39] = system: NCI-H460 lung
[40] = system: MDA-MB-231 breast
[41] = system: SNB-19 CNS
[42] = system: MDA-MB-435
[43] = system: MDA-N
[44] = system: U251 CNS
[45] = system: CAKI-1 renal
[46] = system: UACC-257 melanoma
[47] = system: SNB-75 CNS
[48] = system: A498 renal
[49] = system: RPMI-8226 leukemia
[50] = system: EKVX NSCLC
[51] = system: SK-OV-3 ovarian
[52] = system: 786-0 renal
[53] = system: ACHN renal
[54] = system: NCI-H23 lung
[55] = system: SF-268 CNS
[56] = system: HCC-2998 colon
[57] = system: SK-MEL-2 melanoma
[58] = system: MCF7 breast
[59] = system: HT29 colon

SMILES: Cc1cn(C2OC(CO)C(O)C2O)c(=O)[nH]c1=O (configuration not stated)
- TGI [1]: > 1000 µM
- TGI [2]: > 1000 µM
- TGI [3]: > 1000 µM
- TGI [4]: > 1000 µM
- TGI [5]: > 1000 µM
- TGI [6]: > 1000 µM
- TGI [7]: > 1000 µM
- TGI [8]: > 1000 µM
- TGI [9]: > 1000 µM
- TGI [10]: > 1000 µM
- TGI [11]: > 1000 µM
- TGI [12]: > 1000 µM
- TGI [13]: > 1000 µM
- TGI [14]: > 1000 µM
- TGI [15]: > 1000 µM
- TGI [16]: > 1000 µM
- TGI [17]: > 1000 µM
- TGI [18]: > 1000 µM
- TGI [19]: > 1000 µM
- TGI [20]: > 1000 µM
- TGI [21]: > 1000 µM
- TGI [22]: > 1000 µM
- TGI [23]: > 1000 µM
- TGI [24]: > 1000 µM
- TGI [25]: > 1000 µM
- TGI [26]: > 1000 µM
- TGI [27]: > 1000 µM
- TGI [28]: > 1000 µM
- TGI [29]: > 1000 µM
- TGI [30]: > 1000 µM
- TGI [31]: > 1000 µM
- TGI [32]: > 1000 µM
- TGI [33]: > 1000 µM
- TGI [34]: > 1000 µM
- TGI [35]: > 1000 µM
- TGI [36]: > 1000 µM
- TGI [37]: > 1000 µM
- TGI [38]: > 1000 µM
- TGI [39]: > 1000 µM
- TGI [40]: > 1000 µM
- TGI [41]: > 1000 µM
- TGI [42]: > 1000 µM
- TGI [43]: > 1000 µM
- TGI [44]: > 1000 µM
- TGI [45]: > 1000 µM
- TGI [46]: > 1000 µM
- TGI [47]: > 1000 µM
- TGI [48]: > 1000 µM
- TGI [49]: > 1000 µM
- TGI [50]: > 1000 µM
- TGI [51]: > 1000 µM
- TGI [52]: > 1000 µM
- TGI [53]: > 1000 µM
- TGI [54]: > 1000 µM
- TGI [55]: > 1000 µM
- TGI [56]: > 1000 µM
- TGI [57]: > 1000 µM
- TGI [58]: > 1000 µM
- TGI [59]: > 1000 µM

SMILES: S=C1Cc2cc3ccccc3nc2-c2ccccc2N1
- TGI [1]: > 91.9 µM
- TGI [2]: > 100 µM
- TGI [3]: 42.2 µM
- TGI [4]: 80.7 µM
- TGI [5]: > 100 µM
- TGI [6]: 47.6 µM
- TGI [7]: > 100 µM
- TGI [8]: 27.9 µM
- TGI [9]: > 100 µM
- TGI [10]: > 70.4 µM
- TGI [11]: 65.1 µM
- TGI [12]: > 40.4 µM
- TGI [13]: 46.9 µM
- TGI [14]: > 69.8 µM
- TGI [15]: 28.7 µM
- TGI [16]: > 100 µM
- TGI [17]: > 100 µM
- TGI [18]: 43.1 µM
- TGI [19]: > 100 µM
- TGI [20]: 30.7 µM
- TGI [21]: 31.2 µM
- TGI [22]: > 59.1 µM
- TGI [23]: > 100 µM
- TGI [24]: 30.8 µM
- TGI [25]: > 63.7 µM
- TGI [26]: > 64.2 µM
- TGI [27]: > 59.1 µM
- TGI [28]: > 64.8 µM
- TGI [29]: 25.7 µM
- TGI [30]: 29 µM
- TGI [31]: 44.6 µM
- TGI [32]: 24.9 µM
- TGI [33]: 20.2 µM
- TGI [34]: 24.1 µM
- TGI [35]: 32.6 µM
- TGI [36]: > 100 µM
- TGI [37]: 29.4 µM
- TGI [38]: > 87.3 µM
- TGI [39]: > 51.2 µM
- TGI [40]: 27 µM
- TGI [41]: > 47.4 µM
- TGI [42]: > 68.2 µM
- TGI [43]: > 100 µM
- TGI [44]: 28.3 µM
- TGI [45]: 54.5 µM
- TGI [46]: 65.5 µM
- TGI [47]: 17.5 µM
- TGI [48]: 18.6 µM
- TGI [49]: > 100 µM
- TGI [50]: 79.2 µM
- TGI [51]: 15.4 µM
- TGI [52]: 28.4 µM
- TGI [53]: 41.4 µM
- TGI [54]: 41.6 µM
- TGI [55]: 91.6 µM
- TGI [56]: 36 µM
- TGI [57]: 61.8 µM
- TGI [58]: > 79 µM
- TGI [59]: > 100 µM

SMILES: COc1ccc(OC)c(CCc2cc(OC)ccc2OC)c1
- TGI [1]: > 10 µM
- TGI [2]: 4.88 µM
- TGI [3]: > 7.31 µM
- TGI [4]: > 10 µM
- TGI [5]: > 10 µM
- TGI [6]: > 6.95 µM
- TGI [7]: > 10 µM
- TGI [8]: 2.09 µM
- TGI [9]: > 10 µM
- TGI [10]: > 10 µM
- TGI [11]: > 10 µM
- TGI [12]: > 10 µM
- TGI [13]: > 10 µM
- TGI [14]: > 10 µM
- TGI [15]: > 10 µM
- TGI [16]: > 10 µM
- TGI [17]: 5.28 µM
- TGI [18]: > 9.66 µM
- TGI [19]: > 9.35 µM
- TGI [20]: > 10 µM
- TGI [21]: > 10 µM
- TGI [22]: > 10 µM
- TGI [23]: > 10 µM
- TGI [24]: > 10 µM
- TGI [25]: 7.29 µM
- TGI [26]: > 10 µM
- TGI [27]: > 10 µM
- TGI [28]: > 10 µM
- TGI [29]: > 10 µM
- TGI [30]: > 6.02 µM
- TGI [31]: > 10 µM
- TGI [32]: > 8.51 µM
- TGI [33]: > 10 µM
- TGI [34]: > 10 µM
- TGI [35]: > 10 µM
- TGI [36]: > 10 µM
- TGI [37]: 4.76 µM
- TGI [38]: > 10 µM
- TGI [39]: > 10 µM
- TGI [40]: > 10 µM
- TGI [41]: > 10 µM
- TGI [42]: 0.49 µM
- TGI [43]: 1.64 µM
- TGI [44]: > 10 µM
- TGI [45]: > 10 µM
- TGI [46]: > 10 µM
- TGI [47]: 9.07 µM
- TGI [48]: > 10 µM
- TGI [49]: > 10 µM
- TGI [50]: > 10 µM
- TGI [51]: > 10 µM
- TGI [52]: > 10 µM
- TGI [53]: > 10 µM
- TGI [54]: > 10 µM
- TGI [55]: > 10 µM
- TGI [56]: > 10 µM
- TGI [57]: > 8.88 µM
- TGI [58]: > 10 µM
- TGI [59]: > 10 µM
